Tests used:
human neutrophils [1] = experiment: Assay (c): Arachidonic acid release assay, A23187-challenged human neutrophils; type: cell-based; conditions: calcium ionophore A23187 2 μM
Description: Human neutrophils are obtained in the laboratory using three different methods. One method uses leukophoresis packs from normal humans and neutrophils are isolated using the histopaque-1077 technique. The blood is centrifuged at 300×g for 10 minutes. The cell pellets are resuspended in PBS composed of 137 mM NaCI, 8.8 mM Na2HPO4, 1.5 mM KH2 PO4, 2.7 mM KCI (Dulbecco's Gibco Laboratories, Long Island, N.Y.) and layered over histopaque-1077 (Sigma, St. Louis, Mo.). The pellets are collected after centrifugation (300×g for 30 minutes) and washed once in PBS. The cell pellets are exposed briefly to deionized water to lyse any erythrocytes. The remaining cells are collected by centrifugation, suspended in PBS, counted and identified after cytospinning and staining. The final leukocyte preparation will be of greater than 95% purity and viability.
The second method isolates human neutrophils from fresh heparinized normal blood using the Histopaque-1077 technique. […] The remaining cells are collected by centrifugation, suspended in PBS, counted and identified after cytospinning and staining. […]
The third method isolates human neutrophils from freshly drawn heparinized normal blood using the Percoll technique. […] The neutrophils are suspended in PBS, counted and identified after cytospinning and staining. […]

human neutrophils [2] = experiment: Assay (e): mobilization of labeled arachidonic acid into 1-ether phospholipids in intact cells; type: cell-based; conditions: non-stimulated human neutrophils, 2 hrs
Description: Measurement of the effect of CoA-IT inhibitors on the transfer of [^3 H]arachidonate into 1-ether phospholipids in non-stimulated inflammatory cells can be accomplished by general application of the following specific method. Human neutrophils were isolated and resuspended (5×10^7 /ml) in Hanks Balanced Salt Solution (HBSS; Gibco). [5,6,8,9,11,12,14,15-^3 H]-Arachidonic acid (100 Ci/mmol; New England Nuclear) complexed to 200 μl HBSS containing 0.25 mg/ml HSA was added to the cell suspension (1 μCi/ml). The cells were incubated with gentle shaking at 37° C. for 5 min. The reaction was terminated by the addition of 40 ml ice-cold HBSS containing HSA (0.25 mg/ml). The cells were then removed from the supernatant fluid by centrifugation (225 g, 8 min). Unincorporated [^3 H]-arachidonic acid was completely removed by two more washes of HBSS containing 0.25 mg/mi HSA. The neutrophils were resuspended in fresh buffer, exposed to various concentrations of a CoA-IT inhibitor or its vehicle and incubated without stimulation for 2 hrs. […] The phospholipid subclasses were separated by TLC in benzene/hexane/ethyl ether (50:45:4, v/v), located by image analysis (Bioscan) and the amount of radioactivity in each class was determined by zonal scraping and liquid scintillation counting.

SMILES: O=C(O)c1ccccc1Oc1ccc(C(F)(F)F)cc1NS(=O)(=O)c1cc(C(F)(F)F)cc(C(F)(F)F)c1 [Example 1, 2-[2-[3,5-Bis(trifluoromethyl)phenylsulfonamido]-4-trifluoromethylphenoxy]benzoic acid]
- inhibition of arachidonic acid release (human neutrophils [1]): positive activity
- blocking the movement of arachidonic acid into 1-ether phospholipids (human neutrophils [2]): positive activity

From patent US5545669A, “Anti-inflammatory compounds” (priority 1994, dated 1996)
